Test results published in PubChem BioAssay (NCI).
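Assay format: 96-well plates, 48-hour exposure. Abbreviation: GI50, concentration required for 50% inhibition of growth. At the TGI there is no net growth.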

What was measured:
Test in all cases: NCI-60 cell line screen, 48 h
MDA-MB-435 = tested on: MDA-MB-435
DLD-1 colon = tested on: DLD-1 colon
DMS 273 small cell lung = tested on: DMS 273 small cell lung
KM20L2 colon = tested on: KM20L2 colon
RXF-631 renal = tested on: RXF-631 renal
XF 498 CNS = tested on: XF 498 CNS
MDA-N = tested on: MDA-N
DMS 114 small cell lung = tested on: DMS 114 small cell lung
HOP-18 NSCLC = tested on: HOP-18 NSCLC

Row | Structure (SMILES) | GI50 (MDA-MB-435) [µM] | TGI (MDA-MB-435) [µM] | TGI (DLD-1 colon) [µM] | TGI (DMS 114 small cell lung) [µM] | other results
1 | Cn1cc(-c2ccc(=O)n(Cc3cccc(-c4ncc(OCCN5CCOCC5)cn4)c3)n2)cn1 | 61.8 | > 100 |  |  | 
2 | CC1(C)N=C(N)N=C(N)N1c1cccc(/C=C/C=C/c2cccc([N+](=O)[O-])c2)c1 | 2.68 | 15.2 |  |  | 
3 | CC(C)=CC(=O)CC(=O)C(=O)Nc1ccc(C)c(C)c1 |  |  | > 100 |  | TGI (DMS 273 small cell lung): > 100 µM; TGI (KM20L2 colon): > 100 µM; TGI (RXF-631 renal): > 100 µM; TGI (XF 498 CNS): > 100 µM
4 | Nc1nc(N)[n+]([O-])c(N)c1NCO |  | > 100 |  |  | TGI (MDA-N): > 100 µM
5 | CCCCCCCCCCCCCCCCCCNC(=O)[C@H]1CSC(c2ccc(OC)c(F)c2)N1 (stereo partly drawn) | 1.22 | 2.91 |  |  | 
6 | O=[N+]([O-])c1ccc(N/N=C\c2cc(Cl)ccc2O)nc1 | 1.76 | > 100 |  |  | 
7 | ClC(=Nc1cccc2ccccc12)N(c1ccccc1)c1ccccc1 |  | > 100 |  |  | TGI (MDA-N): > 100 µM
8 | Cc1cc(C)nc(NS(=O)(=O)c2ccc(Nc3c4ccccc4nc4c(C(=O)Nc5ccc(S(N)(=O)=O)cc5)cccc34)cc2)n1 |  |  | > 100 | > 100 | TGI (DMS 273 small cell lung): > 100 µM; TGI (HOP-18 NSCLC): > 100 µM; TGI (KM20L2 colon): > 100 µM; TGI (XF 498 CNS): > 100 µM
9 | Nc1ccn(C=C=CCO)c(=O)n1 | > 1000 | > 1000 |  |  | 
10 | COC1C=C(Nc2cccc(Cl)c2)C(=O)C1 (stereo not drawn) |  |  | > 100 | > 100 | TGI (DMS 273 small cell lung): > 100 µM; TGI (HOP-18 NSCLC): 76.2 µM; TGI (KM20L2 colon): > 100 µM; TGI (XF 498 CNS): 77 µM
11 | NC(N)=NS(=O)(=O)c1ccc(NC(=O)c2cccc3c(Nc4ccc(S(=O)(=O)N=C(N)N)cc4)c4ccc(Cl)cc4nc23)cc1 |  |  | > 100 | > 100 | TGI (DMS 273 small cell lung): > 100 µM; TGI (HOP-18 NSCLC): > 100 µM; TGI (KM20L2 colon): > 100 µM; TGI (XF 498 CNS): > 100 µM
12 | CC(=O)O[C@H]1C(=O)[C@@]2(C)C([C@H](OC(=O)c3ccccc3)[C@]3(O)C[C@H](OC(=O)[C@H](O)[C@H](NC(=O)c4ccccc4)c4ccc(Cl)cc4)C(C)=C1C3(C)C)C1(OC(C)=O)CO[C@@H]1C[C@@H]2O (stereo partly drawn) |  |  |  | 0.000649 | TGI (RXF-631 renal): > 100 µM; GI50 (XF 498 CNS): 0.0182 µM
13 | COc1ccc(-c2oc3cc(O)c(OC)c(O)c3c(=O)c2OC2OC(CO)C(O)C(O)C2O)cc1 (stereo not drawn) |  |  | > 100 | > 100 | TGI (DMS 273 small cell lung): > 100 µM; TGI (HOP-18 NSCLC): > 100 µM; TGI (KM20L2 colon): > 100 µM
14 | CC(=O)c1ccc(Nc2cc(-n3ccnc3)nc3ccccc23)cc1 | 13.5 | 60.1 |  |  | 
15 | O=C1/C(=C\c2ccc(Cl)cc2)CN(C(=S)Nc2ccccc2)C/C1=C\c1ccc(Cl)cc1 | 1.09 | 3.01 |  |  | 
16 | CCOC(=O)c1cnc(SCc2ccc(Cl)c(Cl)c2)nc1N1CC1 | 1.97 | 11.4 |  |  | 
17 | O/N=C1\CCc2cc(-c3nc(C4CCNCC4)[nH]c3-c3ccncc3)ccc21 | 12.1 | > 25 |  |  | 
18 | O=C(CCCc1c[nH]c2ccccc12)NC1CC(=O)c2c(Br)sc(Br)c21 (stereo not drawn) | 17.8 | 57.3 |  |  | 
19 | CC1=C(C(=O)Nc2ccc([N+](=O)[O-])cc2)C(c2ccco2)C(C(=O)Nc2ccc([N+](=O)[O-])cc2)=C(C)N1 |  |  | > 100 | 43.2 | TGI (KM20L2 colon): 60 µM; TGI (RXF-631 renal): > 100 µM; TGI (XF 498 CNS): > 100 µM
20 | CC(=O)[CH-]C(=O)c1ccccc1.CC(=O)[CH-]C(=O)c1ccccc1.CCN(CC)CC[O-].CCN(CC)CC[O-].Cl.[Ti+4] |  |  |  |  | GI50 (KM20L2 colon): 28.9 µM; TGI (KM20L2 colon): > 100 µM
21 | CCCCN(CCCC)C(=O)C(=O)CC(=O)c1ccc(Br)cc1 |  |  | > 100 | > 100 | TGI (DMS 273 small cell lung): > 100 µM; TGI (HOP-18 NSCLC): > 100 µM; TGI (KM20L2 colon): > 100 µM; TGI (XF 498 CNS): > 100 µM

Row | Structure (SMILES) | GI50 (MDA-MB-435) [µM] | TGI (MDA-MB-435) [µM] | TGI (DLD-1 colon) [µM] | TGI (DMS 114 small cell lung) [µM] | other results
22 | COc1cc2c3c(n(C)c(=O)c2cc1OC)-c1cc2c(cc1/C3=C\CCCCN)OCO2 | 5.56 | 20.3 |  |  | 
23 | Cc1ccc2c(c1)NC(c1ccc(C(=O)O)cc1)c1cccn1-2 (stereo not drawn) |  | > 100 |  |  | TGI (MDA-N): > 100 µM
24 | Nc1cccc2c1C(=O)N(C1CCC(=O)NC1=O)C2=O (stereo not drawn) | > 100 | > 100 |  |  | 
25 | CCOC(=O)c1cccc(=O)c(C(=O)OCC)c1 |  |  | > 100 | > 100 | TGI (DMS 273 small cell lung): > 100 µM; TGI (KM20L2 colon): > 100 µM; TGI (RXF-631 renal): > 100 µM; TGI (XF 498 CNS): > 100 µM
26 | O=C(Cc1ccccc1)NN1C(=O)C(Cl)C1c1cccc(O)c1 (stereo not drawn) |  |  | 31.1 | 29.4 | TGI (DMS 273 small cell lung): 37.9 µM; TGI (HOP-18 NSCLC): 36.5 µM; TGI (KM20L2 colon): 32.2 µM; TGI (XF 498 CNS): 35.4 µM
27 | CCCCCCCCCCCCc1ccc(C(=O)/C=C/C(=O)O)cc1 | 3.05 | 11.2 |  |  | 
28 | Cc1cc2c(C)c3cc(C)c(N)cc3nc2cc1N | 1.06 | 5.93 |  |  | 
29 | COc1cc2c(cc1OC)C(=O)C(Br)CC2 (stereo not drawn) | 2.87 | 10.4 |  |  | 
30 | CC(Cc1ccc(Cl)cc1Cl)NO (stereo not drawn) |  | > 100 |  |  | TGI (MDA-N): > 100 µM
31 | COc1ccc(N(C)c2nc(C)nc3ccccc23)cc1 | < 0.01 | < 0.01 |  |  | 
32 | O=C1c2ccccc2-c2c1c1ccccc1c(=O)n2CCO |  | > 100 |  |  | TGI (MDA-N): > 100 µM
33 | COc1cc(C(=O)O)c([N+](=O)[O-])c(OC)c1OC |  | > 100 |  |  | TGI (MDA-N): > 100 µM
34 | S=c1[nH]nc(COc2ccc(Cl)cc2)o1 |  |  | > 100 | > 100 | TGI (DMS 273 small cell lung): > 100 µM; TGI (HOP-18 NSCLC): > 100 µM; TGI (KM20L2 colon): > 100 µM; TGI (RXF-631 renal): > 100 µM
35 | NC(N)=NC(CC(=O)O)c1ccccc1 (stereo not drawn) |  | > 100 |  |  | TGI (MDA-N): > 100 µM
36 | COc1cccc(NC(=O)c2sc3nc4c(cc3c2N)CCCC4)c1 | 0.15 | 0.44 |  |  | 
37 | C1=CN2C[n+]3cccc(OCc4ccccc4)c3N=C2C(OCc2ccccc2)=C1 |  | 33.2 |  |  | 
38 | Cn1nc(-c2ccccc2NC(=O)C(F)(F)F)c(=O)n(C)c1=S |  |  | > 100 | 29.5 | TGI (DMS 273 small cell lung): > 100 µM; TGI (XF 498 CNS): 36.9 µM
39 | O=S(=O)(c1ccc(NC(=S)N/N=C/c2ccccc2O)cc1)N1CCCCC1 |  | 11.2 |  |  | 
40 | CC1=C(C(=O)Nc2ccccc2)C(c2ccc3c(c2)OCO3)C(C(=O)Nc2ccccc2)=C(C)N1 |  |  | > 100 | > 100 | TGI (DMS 273 small cell lung): 86.5 µM; TGI (HOP-18 NSCLC): > 100 µM; TGI (RXF-631 renal): > 100 µM; TGI (XF 498 CNS): 85.4 µM
41 | N#Cc1ccccc1NC(=O)C(=O)C(C(=O)c1ccccc1-c1ccccc1)C1OC(=O)c2ccccc21 (stereo not drawn) |  |  | 32.4 | 41.6 | TGI (KM20L2 colon): 40.8 µM; TGI (XF 498 CNS): 33.6 µM
42 | COc1ccc(/C(=C/c2cc(OC)c(OC)c(OC)c2)[N+](=O)[O-])cc1 | 1.81 | 3.99 |  |  | 
